We go through 28 compounds from patent US11407767B2, “Heterocyclyl substituted pyrrolopyridines that are inhibitors of the CDK12 kinase” (The University of Nottingham, priority 2017, dated 2022).

One test deals with DM1 fibroblasts. In words: Nuclear foci assay. The format is cell-based. To be noted: Fibroblast; DM1 fibroblasts treated for 24 hours, 11 point dilution 20 μM-19 nM, in situ hybridisation with cy3 labelled CAG10 probe. As to the method: DM1 fibroblasts were treated with compounds in an 11 point dilution series from 20 μM-19 nM for 24 hours. Following treatment, fluorescent in situ hybridisation was performed with a cy3 labelled CAG10 probe, to visualize nuclear foci and cells were analysed on a Molecular Devices plate reader with customised MetaExpress software (Ketley, A. et al. (2014). Hum Mol Genet, 23: 1551-1562). Compounds that reduced nuclear foci in a concentration dependent manner, compared to DMSO treated cells were identified.

The next test addresses CDK12/CycK (Homo sapiens, UniProt Q9NYV4). Put plainly: Inhibition of CDK12 (ADP-Glo kinase assay). To be noted: 60 nM CDK12/CycK, 30 minutes pre-incubation, 1 μM ATP, 0.5 μM RBER-IRStide substrate, 1 h at 25° C., read-out: CDK12/cyclin K IC50. The format is biochemical. In short, it runs like this:
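ADP-Glo luminescence read after a 1 h, 25 °C reaction with 1 μM ATP and 0.5 μM RBER-IRStide peptide. Enzyme (60 nM) and compound were first pre-incubated 30 min; buffer 50 mM HEPES pH 7.5, 20 mM MgCl2, 3 mM MnCl2, 1% DMSO. IC50 fitted after blank subtraction.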
(In general: ADP-Glo first removes unused ATP, then detects ADP through luciferase.)

Where only a bound is given, the exact number is not on record here.

CDK12/CycK, sequence (Q9NYV4 whole entry): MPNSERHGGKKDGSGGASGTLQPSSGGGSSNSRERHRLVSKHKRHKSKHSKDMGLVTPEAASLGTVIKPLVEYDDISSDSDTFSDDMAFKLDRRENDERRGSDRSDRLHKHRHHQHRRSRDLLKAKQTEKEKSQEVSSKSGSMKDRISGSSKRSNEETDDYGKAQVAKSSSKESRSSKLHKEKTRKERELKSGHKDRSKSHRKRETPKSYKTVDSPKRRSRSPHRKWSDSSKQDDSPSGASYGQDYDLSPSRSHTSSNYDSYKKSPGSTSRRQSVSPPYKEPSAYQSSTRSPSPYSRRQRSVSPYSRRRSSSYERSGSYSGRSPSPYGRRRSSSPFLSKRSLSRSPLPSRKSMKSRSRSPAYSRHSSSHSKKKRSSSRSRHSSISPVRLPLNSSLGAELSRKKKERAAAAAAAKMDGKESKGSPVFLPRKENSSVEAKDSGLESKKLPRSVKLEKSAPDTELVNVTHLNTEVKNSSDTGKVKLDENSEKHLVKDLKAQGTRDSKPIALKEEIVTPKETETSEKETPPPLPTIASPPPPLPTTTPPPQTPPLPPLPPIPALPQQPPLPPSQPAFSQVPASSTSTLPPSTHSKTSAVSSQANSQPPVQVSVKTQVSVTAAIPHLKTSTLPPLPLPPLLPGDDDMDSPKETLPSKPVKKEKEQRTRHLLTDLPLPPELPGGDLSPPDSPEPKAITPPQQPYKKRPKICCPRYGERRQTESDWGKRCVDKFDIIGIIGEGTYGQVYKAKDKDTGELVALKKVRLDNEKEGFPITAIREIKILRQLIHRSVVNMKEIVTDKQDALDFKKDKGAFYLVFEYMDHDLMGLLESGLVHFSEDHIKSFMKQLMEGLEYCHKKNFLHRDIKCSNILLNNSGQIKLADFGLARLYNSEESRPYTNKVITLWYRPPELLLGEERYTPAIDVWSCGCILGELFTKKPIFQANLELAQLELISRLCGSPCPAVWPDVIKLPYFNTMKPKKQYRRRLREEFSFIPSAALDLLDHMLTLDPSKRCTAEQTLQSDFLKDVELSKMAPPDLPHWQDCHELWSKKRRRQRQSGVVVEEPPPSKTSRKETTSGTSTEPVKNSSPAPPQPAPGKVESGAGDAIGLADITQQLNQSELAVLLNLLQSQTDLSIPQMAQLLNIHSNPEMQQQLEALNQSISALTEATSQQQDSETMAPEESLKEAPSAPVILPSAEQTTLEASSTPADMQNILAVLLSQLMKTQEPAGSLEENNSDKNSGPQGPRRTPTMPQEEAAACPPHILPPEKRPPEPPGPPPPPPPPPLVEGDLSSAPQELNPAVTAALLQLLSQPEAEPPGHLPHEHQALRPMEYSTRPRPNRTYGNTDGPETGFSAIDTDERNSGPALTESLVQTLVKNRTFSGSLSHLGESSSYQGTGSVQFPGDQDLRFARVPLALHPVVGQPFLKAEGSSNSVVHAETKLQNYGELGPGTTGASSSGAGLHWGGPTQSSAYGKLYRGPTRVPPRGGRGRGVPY
CDK12/CycK, sequence (O75909 whole entry partner): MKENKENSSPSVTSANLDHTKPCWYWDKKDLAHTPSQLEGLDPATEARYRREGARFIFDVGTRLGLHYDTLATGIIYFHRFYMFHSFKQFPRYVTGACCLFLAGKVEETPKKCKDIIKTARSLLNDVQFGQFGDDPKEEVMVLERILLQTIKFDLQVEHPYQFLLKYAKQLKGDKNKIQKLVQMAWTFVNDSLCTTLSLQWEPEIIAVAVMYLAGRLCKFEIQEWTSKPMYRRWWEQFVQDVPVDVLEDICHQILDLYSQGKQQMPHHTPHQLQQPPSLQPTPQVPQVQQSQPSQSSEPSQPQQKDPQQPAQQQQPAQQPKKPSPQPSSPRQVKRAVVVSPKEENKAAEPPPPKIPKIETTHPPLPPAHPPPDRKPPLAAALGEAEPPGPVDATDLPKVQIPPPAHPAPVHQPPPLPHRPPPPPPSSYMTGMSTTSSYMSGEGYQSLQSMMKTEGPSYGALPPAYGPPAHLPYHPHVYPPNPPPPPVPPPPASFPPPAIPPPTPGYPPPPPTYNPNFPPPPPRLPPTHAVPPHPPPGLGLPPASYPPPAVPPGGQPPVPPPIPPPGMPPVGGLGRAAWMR

Turning to `c1cnn2ncc(-c3ccnc4[nH]ccc34)c2c1` [Example 28, 3-(1H-Pyrrolo[2,3-b]pyridin-4-yl)pyrazolo[1,5-b]pyridazine], the IC50 was less than 1000 nM in the test with DM1 fibroblasts and 100 to 1000 nM on CDK12/CycK.
Consider `CN(C)C/C=C/C(=O)N1CCC(CC(=O)N2CCC(c3cc4c(-c5cnn6ncccc56)ccnc4[nH]3)C2)CC1` (stereo not shown) [Example 69, (E)-4-(Dimethylamino)-1-(4-(2-oxo-2-(3-(4-(pyrazolo[1,5-b]pyridazin-3-yl)-1H-pyrrolo[2,3-b]pyridin-2-yl)pyrrolidin-1-yl)ethyl)piperidin-1-yl)but-2-en-1-one], for which the IC50 lay in the range of 10000 to 100000 nM in the test on DM1 fibroblasts and 100 to 1000 nM at CDK12/CycK.
Consider `C=CC(=O)Nc1ccc(C(=O)NCc2cc3c(-c4cnn5ncccc45)ccnc3[nH]2)cc1` [Example 57, 4-Acrylamido-N-((4-(pyrazolo[1,5-b]pyridazin-3-yl)-1H-pyrrolo[2,3-b]pyridin-2-yl)methyl)benzamide], for which the IC50 fell in the range of 1000 to 10000 nM in the test with DM1 fibroblasts and 100 to 1000 nM on CDK12/CycK.
With `CCC(=O)N1CCC[C@H]1C(=O)NCCc1cc2c(-c3cnn4ncccc34)ccnc2[nH]1` [Example 73, (S)-1-Propionyl-N-(2-(4-(pyrazolo[1,5-b]pyridazin-3-yl)-1H-pyrrolo[2,3-b]pyridin-2-yl)ethyl)pyrrolidine-2-carboxamide], the results for the IC50 in the test on DM1 fibroblasts and at CDK12/CycK were 10000 to 100000 nM and 1000 to 30000 nM, respectively.
For `C=CC(=O)N1CCC1C(=O)NCCc1cc2c(-c3cnn4ncccc34)ccnc2[nH]1` (single isomer, unassigned) [Example 39], in that order: less than 1000 nM and less than 100 nM.
Consider `C=CC(=O)Nc1cc(C(=O)N2CCC(c3cc4c(-c5cnn6ncccc56)ccnc4[nH]3)C2)ccc1OC` (stereo not shown) [Example 204, N-(2-Methoxy-5-(3-(4-(pyrazolo[1,5-b]pyridazin-3-yl)-1H-pyrrolo[2,3-b]pyridin-2-yl)pyrrolidine-1-carbonyl)phenyl)acrylamide], for which the IC50 in the test on DM1 fibroblasts was less than 1000 nM; at CDK12/CycK it was less than 100 nM.
Regarding `C=CC(=O)N1CCC[C@@H]1C(=O)NCCc1cc2c(-c3cnn4ncccc34)ccnc2[nH]1` [Example 33, (R)-1-Acryloyl-N-(2-(4-(pyrazolo[1,5-b]pyridazin-3-yl)-1H-pyrrolo[2,3-b]pyridin-2-yl)ethyl)pyrrolidine-2-carboxamide], the figures for the IC50 in the test with DM1 fibroblasts and at CDK12/CycK were less than 1000 nM and less than 100 nM, respectively.
On to `C=CC(=O)N1CCC[C@H]1C(=O)OCCc1cc2c(-c3cnn4ncccc34)ccnc2[nH]1` [Example 213, 2-(4-(Pyrazolo[1,5-b]pyridazin-3-yl)-1H-pyrrolo[2,3-b]pyridin-2-yl)ethyl acryloyl-L-prolinate], for which the IC50 in the test with DM1 fibroblasts is less than 1000 nM; at CDK12/CycK it was 100 to 1000 nM.
Taken in the same sequence, the figures for `C=CC(=O)N1CC2(CC2)C[C@H]1C(=O)NCCc1cc2c(-c3cnn4ncccc34)ccnc2[nH]1` [Example 208, (S)-5-Acryloyl-N-(2-(4-(pyrazolo[1,5-b]pyridazin-3-yl)-1H-pyrrolo[2,3-b]pyridin-2-yl)ethyl)-5-azaspiro[2.4]heptane-6-carboxamide] were 1000 to 10000 nM and less than 100 nM.
Regarding `C/C=C/C(=O)N1CCC[C@H]1C(=O)NCCc1cc2c(-c3cnn4ncccc34)ccnc2[nH]1` [Example 44, (S,E)-1-(But-2-enoyl)-N-(2-(4-(pyrazolo[1,5-b]pyridazin-3-yl)-1H-pyrrolo[2,3-b]pyridin-2-yl)ethyl)pyrrolidine-2-carboxamide], the IC50 is 1000 to 10000 nM with DM1 fibroblasts and 1000 to 30000 nM on CDK12/CycK.
With `C=CC(=O)Nc1ccc(C(=O)N2CCC(c3cc4c(-c5c[nH]c6ccccc56)ccnc4[nH]3)C2)cc1` (stereo not shown) [Example 129, N-(4-(3-(4-(1H-Indol-3-yl)-1H-pyrrolo[2,3-b]pyridin-2-yl)pyrrolidine-1-carbonyl)phenyl)acrylamide], the IC50 was 1000 to 10000 nM in the test with DM1 fibroblasts and less than 100 nM on CDK12/CycK.
Consider `C=CC(=O)N1CCC[C@H]1C(=O)NCCc1cc2c(-c3cnn(C)c3)ccnc2[nH]1` [Example 94, (S)-1-Acryloyl-N-(2-(4-(1-methyl-1H-pyrazol-4-yl)-1H-pyrrolo[2,3-b]pyridin-2-yl)ethyl)pyrrolidine-2-carboxamide], for which the IC50 in the test with DM1 fibroblasts lay in the range of 10000 to 100000 nM; on CDK12/CycK, 100 to 1000 nM.
Regarding `c1ccc(Cc2cc3c(-c4cnn5ncccc45)ccnc3[nH]2)cc1` [Example 10, 3-(2-Benzyl-1H-pyrrolo[2,3-b]pyridin-4-yl)pyrazolo[1,5-b]pyridazine], the IC50 with DM1 fibroblasts fell in the range of 10000 to 100000 nM; at CDK12/CycK, 1000 to 30000 nM.
With `C=CC(=O)NC(C)C(=O)NCCc1cc2c(-c3cnn4ncccc34)ccnc2[nH]1` (stereo not shown) [Example 212, N-(1-oxo-1-((2-(4-(pyrazolo[1,5-b]pyridazin-3-yl)-1H-pyrrolo[2,3-b]pyridin-2-yl)ethyl)amino)propan-2-yl)acrylamide], the IC50 was 1000 to 10000 nM in the test on DM1 fibroblasts and 100 to 1000 nM at CDK12/CycK.
For `CC#CC(=O)N1CCC[C@H]1C(=O)NCCc1cc2c(-c3cnn4ncccc34)ccnc2[nH]1` [Example 83, (S)-1-(But-2-ynoyl)-N-(2-(4-(pyrazolo[1,5-b]pyridazin-3-yl)-1H-pyrrolo[2,3-b]pyridin-2-yl)ethyl)pyrrolidine-2-carboxamide], in that order: 1000 to 10000 nM and 100 to 1000 nM.
Take `C=CC(=O)Nc1ccc(C(=O)NCCc2cc3c(-c4cnn5ncccc45)ccnc3[nH]2)cc1` [Example 76, 4-Acrylamido-N-(2-(4-(pyrazolo[1,5-b]pyridazin-3-yl)-1H-pyrrolo[2,3-b]pyridin-2-yl)ethyl)benzamide]: the IC50 with DM1 fibroblasts was less than 1000 nM; at CDK12/CycK, less than 100 nM.
Consider `C=CC(=O)N1CCC[C@H]1C(=O)N1CC[C@@H](c2cc3c(-c4cnn5ncccc45)ccnc3[nH]2)C1` [Example 161, 1-((S)-2-((R)-3-(4-(Pyrazolo[1,5-b]pyridazin-3-yl)-1H-pyrrolo[2,3-b]pyridin-2-yl)pyrrolidine-1-carbonyl)pyrrolidin-1-yl)prop-2-en-1-one], for which the IC50 with DM1 fibroblasts is less than 1000 nM; at CDK12/CycK, 100 to 1000 nM.
With `C=CC(=O)N1CCC[C@H]1C(=O)NCCc1cc2c(-c3cnn4ncccc34)ccnc2[nH]1` [Example 32, (S)-1-Acryloyl-N-(2-(4-(pyrazolo[1,5-b]pyridazin-3-yl)-1H-pyrrolo[2,3-b]pyridin-2-yl)ethyl)pyrrolidine-2-carboxamide], the IC50 in the test on DM1 fibroblasts was less than 1000 nM; at CDK12/CycK, less than 100 nM.
In the case of `N#CCC(=O)N1CCC[C@H]1C(=O)NCCc1cc2c(-c3cnn4ncccc34)ccnc2[nH]1` [Example 201, (S)-1-(2-Cyanoacetyl)-N-(2-(4-(pyrazolo[1,5-b]pyridazin-3-yl)-1H-pyrrolo[2,3-b]pyridin-2-yl)ethyl)pyrrolidine-2-carboxamide], the IC50 on CDK12/CycK lay within 100 to 1000 nM.
With `C=CC(=O)N1CCC(C(=O)NCCc2cc3c(-c4cnn5ncccc45)ccnc3[nH]2)CC1` [Example 77, 1-Acryloyl-N-(2-(4-(pyrazolo[1,5-b]pyridazin-3-yl)-1H-pyrrolo[2,3-b]pyridin-2-yl)ethyl)piperidine-4-carboxamide], on CDK12/CycK, the IC50 was in the range of 100 to 1000 nM.
As for `Cc1cnc2[nH]ccc2c1-c1cnn2ncccc12` [Example 9, 3-(5-Methyl-1H-pyrrolo[2,3-b]pyridin-4-yl)pyrazolo[1,5-b]pyridazine], the IC50 on CDK12/CycK is 1000 to 30000 nM.
`C=CC(=O)NCC(=O)N1CCC(c2cc3c(-c4cnn5ncccc45)ccnc3[nH]2)C1` (stereo not shown) [Example 152, N-(2-Oxo-2-(3-(4-(pyrazolo[1,5-b]pyridazin-3-yl)-1H-pyrrolo[2,3-b]pyridin-2-yl)pyrrolidin-1-yl)ethyl)acrylamide]: the IC50 at CDK12/CycK was less than 100 nM.
As to `O=C(CN1CCOCC1)NCc1cc2c(-c3cnn4ncccc34)ccnc2[nH]1` [Example 13, 2-Morpholino-N-((4-(pyrazolo[1,5-b]pyridazin-3-yl)-1H-pyrrolo[2,3-b]pyridin-2-yl)methyl)acetamide], at CDK12/CycK, the IC50 is 1000 to 30000 nM.
On the same count and under the same terms, the same measure for `C=CC(=O)N1CC[C@H](C(=O)NCc2cc3c(-c4cnn5ncccc45)ccnc3[nH]2)C1` [Example 178, (S)-1-Acryloyl-N-((4-(pyrazolo[1,5-b]pyridazin-3-yl)-1H-pyrrolo[2,3-b]pyridin-2-yl)methyl)pyrrolidine-3-carboxamide]: 1000 to 30000 nM; for `CCn1cc(-c2ccnc3[nH]ccc23)nn1` [Example 133, 4-(1-Ethyl-1H-1,2,3-triazol-4-yl)-1H-pyrrolo[2,3-b]pyridine]: 1000 to 30000 nM; for `CN(C)C/C=C/C(=O)Nc1cccc(C(=O)N2CCC(c3cc4c(-c5cnn6ncccc56)ccnc4[nH]3)C2)c1` (stereo not shown) [Example 142, (E)-4-(Dimethylamino)-N-(3-(3-(4-(pyrazolo[1,5-b]pyridazin-3-yl)-1H-pyrrolo[2,3-b]pyridin-2-yl)pyrrolidine-1-carbonyl)phenyl)but-2-enamide]: less than 100 nM.
Regarding `CCC(=O)Nc1cccc(C(=O)N2CCC(c3cc4c(-c5cnn6ncccc56)ccnc4[nH]3)C2)c1` (stereo not shown) [Example 173, N-(3-(3-(4-(Pyrazolo[1,5-b]pyridazin-3-yl)-1H-pyrrolo[2,3-b]pyridin-2-yl)pyrrolidine-1-carbonyl)phenyl)propionamide], the IC50 on CDK12/CycK is less than 100 nM.
On to `C=CC(=O)N1CCC[C@@H]1C(=O)NCc1cc2c(-c3cnn4ncccc34)ccnc2[nH]1` [Example 182, (R)-1-Acryloyl-N-((4-(pyrazolo[1,5-b]pyridazin-3-yl)-1H-pyrrolo[2,3-b]pyridin-2-yl)methyl)pyrrolidine-2-carboxamide], for which the IC50 at CDK12/CycK was 1000 to 30000 nM.
